Data as given in article PMC10020548, “Synthesis and structure–activity relationship studies of benzimidazole-thioquinoline derivatives as α-glucosidase inhibitors” (Scientific Reports, 2023).
Like-named read-outs stand apart in the source and are kept apart here.

Legend:
[1] = biological target: T1, α-Glucosidase enzyme (EC3.2.1.20, Saccharomyces cerevisiae) (Saccharomyces cerevisiae, UniProt P53341); assay: biochemical; conditions: α-glucosidase from S. cerevisiae, substrate p-nitrophenyl glucopyranoside, pH 6.8, 37 °C; mean ± SD
T1 construct: purchased Sigma-Aldrich
Procedure: α-Glucosidase enzyme (EC3.2.1.20, Saccharomyces cerevisiae, 20 U/mg) and substrate (p-nitrophenyl glucopyranoside) were purchased from Sigma-Aldrich. 1 mg of α-glucosidase was dissolved in potassium phosphate buffer (50 mM, pH = 6.8) to obtain the initial activity of 1 U ml^–1. Then, 20 µl of this enzyme solution was incubated with 135 µl of potassium phosphate buffer and 20 µl of test compound at various concentrations in DMSO. Therefore, the final concentration of the enzyme was about 0.1 U ml^–1. After 10 min incubation at 37 °C, 25 µl of the substrate at a final concentration of 4 mM was added to the mixture and allowed to incubate at 37 °C for 20 min.
The percentage of inhibition for each entry was calculated by using the following formula: %Inhibition=[(Abscontrol-Abssample)/Abscontrol]×100 IC50 values were obtained from the nonlinear regression curve using the Logit method.

[2] = biological target: α-glucosidase; conditions: cited from earlier work
[3] = biological target: α-glucosidase (Saccharomyces cerevisiae, UniProt P53341); assay: Enzyme kinetic studies (Lineweaver–Burk plot, secondary plot); format: biochemical
Procedure: A Lineweaver–Burk plot was generated to identify the type of inhibition and the Michaelis–Menten constant (Km) value was determined from the plot between the reciprocal of the substrate concentration (1/[S]) and reciprocal of enzyme rate (1/V) over various inhibitor concentrations. The experimental inhibitor constant (Ki) value was constructed by secondary plots of the inhibitor concentration [I] versus Km[43],[44].

[4] = system: α-glucosidase; design: method as in PMID 34717239; conditions: cited from earlier work
[5] = system: LO2 cells; design: method as in PMID 34717239; conditions: cited from earlier work

T1 sequence (P53341 whole entry): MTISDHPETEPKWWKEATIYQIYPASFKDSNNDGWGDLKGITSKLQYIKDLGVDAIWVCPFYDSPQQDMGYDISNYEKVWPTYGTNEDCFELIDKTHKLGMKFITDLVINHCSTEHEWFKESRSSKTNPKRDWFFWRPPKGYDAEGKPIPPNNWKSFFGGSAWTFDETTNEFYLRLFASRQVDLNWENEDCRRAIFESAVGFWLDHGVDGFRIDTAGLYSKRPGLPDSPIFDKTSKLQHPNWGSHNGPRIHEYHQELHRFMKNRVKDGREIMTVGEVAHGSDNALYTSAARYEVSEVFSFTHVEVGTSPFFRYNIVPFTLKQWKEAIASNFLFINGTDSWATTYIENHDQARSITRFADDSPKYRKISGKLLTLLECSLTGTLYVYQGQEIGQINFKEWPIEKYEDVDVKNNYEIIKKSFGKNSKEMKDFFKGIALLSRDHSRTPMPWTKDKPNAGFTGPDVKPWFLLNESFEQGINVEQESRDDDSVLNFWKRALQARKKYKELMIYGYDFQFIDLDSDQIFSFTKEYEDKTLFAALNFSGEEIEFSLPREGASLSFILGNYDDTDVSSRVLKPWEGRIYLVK
Sequence of α-glucosidase (Saccharomyces cerevisiae, UniProt P53341) (P53341 whole entry): as above

SMILES	IC50 [1] [µM]	further results
O=c1c(C(c2c[nH]c3ccccc23)c2c[nH]c3ccccc23)cc2ccccc2n1Cc1ccccc1 [Compound D]	–	IC50 ([2]; quinolone-bis(indolyl)methane hybrids study, read-out: IC50): 21.8 ± 1.8 µM
Brc1ccc(CSc2nc3ccccc3cc2-c2nc3ccccc3[nH]2)cc1 [Compound 6j, 3-(1H-benzo[d]imidazol-2-yl)-2-((4-bromobenzyl)thio)quinoline]	28 ± 0.6	Ki ([3]; secondary plot of Km versus inhibitor concentration, read-out: inhibition constant, Ki): 28.1 µM; inhibition pattern (Lineweaver–Burk plot) ([3]; substrate p-nitrophenyl α-D-glucopyranoside 1–16 mM, inhibitor 0, 7, 14, 28 µM): competitive inhibition
Fc1cccc(CSc2nc3ccccc3cc2-c2nc3ccccc3[nH]2)c1 [Compound 6c, 3-(1H-benzo[d]imidazol-2-yl)-2-((3-fluorobenzyl)thio)quinoline]	76.7 ± 0.7	–
Brc1ccc(CNc2cccc(-c3nc4ccccc4[nH]3)c2)cn1 [E]	–	IC50 ([2]; in-house library hit, read-out: IC50): 37.9 ± 1.86 µM
O=C(N/N=C/c1ccc(O)c(O)c1)c1ccc2ncccc2c1 [Compound C]	–	IC50 ([2]; quinoline derivatives study, read-out: IC50): 6.2 ± 0.3 µM
Fc1ccccc1CSc1nc2ccccc2cc1-c1nc2ccccc2[nH]1 [Compound 6b, 3-(1H-benzo[d]imidazol-2-yl)-2-((2-fluorobenzyl)thio)quinoline]	188 ± 2.4	–
O=C(N/N=C/c1ccc(O)c(O)c1)c1ccc(-c2nnc(-c3ccc4ncccc4c3)o2)cc1 [Compound B]	–	IC50 ([2]; oxadiazole-quinoline study, read-out: IC50): 2.6 ± 0.01 µM
CC(C)(C)c1ccc(C(=O)Oc2cccc(-c3nc4ccccc4[nH]3)c2)cc1 [F]	–	type of inhibition (kinetic study) [4]: non-competitive inhibition; cytotoxicity against LO2 cells [5]: no cytotoxicity; IC50 ([2]; 2-phenyl-1H-benzo[d]imidazole derivatives, read-out: IC50): 0.71 ± 0.02 µM
O=C(O)c1ccc2ccccc2n1 [Compound A, Quinoline-2-carboxylic acid]	–	IC50 [2]: 9.1 ± 2.3 µg/mL
c1ccc(CSc2nc3ccccc3cc2-c2nc3ccccc3[nH]2)cc1 [Compound 6a, 3-(1H-benzo[d]imidazol-2-yl)-2-(benzylthio) quinoline]	153.7 ± 0.9	–
Cc1cc2nc(-c3ccc(C(=O)N/N=C/c4cc(O)c(O)c(O)c4)cc3)[nH]c2cc1C [G]	–	IC50 ([2]; benzimidazole derivatives (Zawawi and coworkers), read-out: IC50): 8.4 ± 0.76 µM
Cc1cccc2nc(-c3ccccc3Cl)[nH]c12 [H]	–	IC50 ([2]; benzimidazole of previous studies, read-out: IC50): 5.3 ± 0.1 µM
Fc1ccc(CSc2nc3ccccc3cc2-c2nc3ccccc3[nH]2)cc1 [Compound 6d, 3-(1H-benzo[d]imidazol-2-yl)-2-((4-fluorobenzyl)thio)quinoline]	80.9 ± 1.1	–

The next lines start with results.

IC50 [1] [µM]	SMILES	further results
116.6 ± 0.5	Cc1ccc(CSc2nc3ccccc3cc2-c2nc3ccccc3[nH]2)cc1 [Compound 6n, 3-(1H-benzo[d]imidazol-2-yl)-2-((4-methylbenzyl)thio)quinoline]	–
89.2 ± 1.3	O=[N+]([O-])c1ccc(CSc2nc3ccccc3cc2-c2nc3ccccc3[nH]2)cc1 [Compound 6p, 3-(1H-benzo[d]imidazol-2-yl)-2-((4-nitrobenzyl)thio)quinoline]	–
158 ± 2.4	Cc1cccc(CSc2nc3ccccc3cc2-c2nc3ccccc3[nH]2)c1 [Compound 6m, 3-(1H-benzo[d]imidazol-2-yl)-2-((3-methylbenzyl)thio)quinoline]	–
96.6 ± 0.1	Clc1ccc(CSc2nc3ccccc3cc2-c2nc3ccccc3[nH]2)cc1 [Compound 6g, 3-(1H-benzo[d]imidazol-2-yl)-2-((4-chlorobenzyl)thio)quinoline]	–
99.4	Clc1ccc(CSc2nc3ccccc3cc2-c2nc3ccccc3[nH]2)cc1Cl [Compound 6k, 3-(1H-benzo[d]imidazol-2-yl)-2-((3,4-dichlorobenzyl)thio)quinoline]	–
195.7 ± 0.6	Cc1ccccc1CSc1nc2ccccc2cc1-c1nc2ccccc2[nH]1 [Compound 6l, 3-(1H-benzo[d]imidazol-2-yl)-2-((2-methylbenzyl)thio)quinoline]	–
300.7 ± 2	CCSc1nc2ccccc2cc1-c1nc2ccccc2[nH]1 [Compound 6r, 3-(1H-benzo[d]imidazol-2-yl)-2-(ethylthio)quinoline]	–
65.5 ± 2	Brc1cccc(CSc2nc3ccccc3cc2-c2nc3ccccc3[nH]2)c1 [Compound 6i, 3-(1H-benzo[d]imidazol-2-yl)-2-((3-bromobenzyl)thio)quinoline]	–
67.3 ± 0.8	COc1ccc(CSc2nc3ccccc3cc2-c2nc3ccccc3[nH]2)cc1 [Compound 6q, 3-(1H-benzo[d]imidazol-2-yl)-2-((4-methoxybenzyl)thio)quinoline]	–
126.9 ± 0.5	Cc1cccc(CSc2nc3ccccc3cc2-c2nc3ccccc3[nH]2)c1C [Compound 6o, 3-(1H-benzo[d]imidazol-2-yl)-2-((2,3-dimethylbenzyl)thio)quinoline]	–
48.2 ± 0.4	Clc1cccc(CSc2nc3ccccc3cc2-c2nc3ccccc3[nH]2)c1 [Compound 6f, 3-(1H-benzo[d]imidazol-2-yl)-2-((3-chlorobenzyl)thio)quinoline]	–
133.5 ± 1.3	Brc1ccccc1CSc1nc2ccccc2cc1-c1nc2ccccc2[nH]1 [Compound 6h, 3-(1H-benzo[d]imidazol-2-yl)-2-((2-bromobenzyl)thio)quinoline]	–
663.7 ± 1.2	Clc1ccccc1CSc1nc2ccccc2cc1-c1nc2ccccc2[nH]1 [Compound 6e, 3-(1H-benzo[d]imidazol-2-yl)-2-((2-chlorobenzyl)thio)quinoline]	–
